According to patent US7772260B2, “Imidazo[2,1-b]-1,3,4-thiadiazole sulfonamides” (Aegera Therapeutics Inc., priority 2001, dated 2010):
pIC50: −log10 of the molar value. “And” between values parts separate entries of the source, which are not always exact repeats. Equal values may be shown once. “Also recorded” adds a separate entry of the source. Where a name gives a salt, the structure may show the parent alone.

Legend:
CA II = CA II (Homo sapiens, UniProt P00918); assay: CA II inhibition; format: biochemical; settings: read-out: IC(50), CA II inhibition
Method: CA II inhabition was measured using the protocol described by Pocker, Y.'Stone, J. Biochemistry 1967, 6, 668.

SCG neurons [1] = assay: Protection of SCG neurons from anti-NGF killing; format: cell-based, Sprague Dawley rats; settings: anti-NGF antibody, serum and NGF free 48 hours, Alamar Blue, +/−1 uM, read-out: IC(50), rescue from anti-NGF killing of SCG neurons
Method: Neurotrophins are critical to the growth, development, and survival of small fiber neurons of the PNS. SCG neurons are neurons of the PNS that undergo apoptosis upon NGF withdrawal. In a typical experiment SCG neurons are cultured in the presence of NGF, which induces survival and neurite out-growth. After 5 days the NGF is removed by either the addition of anti-NGF polyclonal antibody (Sigma) or by repeated washings (4 times) with NGF free media, resulting in the apoptosis of up to 90% of the neurons after 48 hours, as measured by MTS staining.
After 4 days the cells were treated with anti-NGF antibody (Sigma). At this time compound was added and the cells were maintained serum and NGF free for 48 hours, at which time viability was assessed using Alamar Blue (Medicorp) staining.

SCG neurons [2] = assay: cells; format: cell-based, Sprague Dawley rats; settings: Taxol™ (50 ng/mL), viability 48 hours later, MTS, read-out: IC(50), protection of SCG neurons from Taxol killing
cortical neurons = assay: Neuroprotection of cortical neurons in the presence of beta-amyloid; format: cell-based, Sprague Dawley rats; settings: 10 uM compound, 10 uM 25-35 amyloid beta peptide, 48 hour
Method: Primary neuronal/glial cortical cultures were established from postnatal day 1 Sprague Dawley rats. Cerbral cortices were isolated and dissociated with 0.25% trypsin for 20 minutes at 37 degrees. The tissue was then triturated in PBS containing 0.1% bovine serum albumin and 0.2 mg/ml DNAse. Cells were plated in poly D-lysine coated 96 well plates at a density of 1e6 cells per mL. Cultures were maintained at 37 degrees in 5% C02/95% air for 2 weeks in Neurobasal (Gibco) supplemented with B27, glutamine, and penicillin/streptomycin. 5ng/mL AraC was added after 48 hours. After 2 weeks cells were exposed to 10 uM 25-35 amyloid beta peptide with and without 10 uM compound 76. After 2 days of treatment apoptotic cells were detected with Cy3-conjugated annexin V (Sigma).

sciatic nerve = assay: Sciatic nerve crush injury model; format: in vivo, Sprague Dawley rats; settings: for functional recovery after sciatic nerve crush: 1 and 10 mg/kg
Text: The sciatic nerve crush model is a representative model of axonal repair and regeneration. The sciatic nerve is physically crushed with forceps at the mid-thigh; only the right leg is injured, the left leg serving as a control. The axons die from the crush point to their point of innervation. Functional loss of the axons is rapidly observed as the animals drag their right leg and the toes of the right leg no longer spread. Recovery is observed in approximately 28 days as the animals regain use of their right leg. More quantitative measurements of recovery include toe spread measurements between the digits 1 and 5 and digits 2 and 4, gait analysis and electrical conductivity from the toes to the injury site (see Example 161). Male Sprague Dawley rats were anaesthetized (halothane and buprenorphine) and the right hind leg was blunt dissected to expose the sciatic nerve at mid-thigh. The nerve was crushed twice for a total of 30 seconds using No.7 Dumont jeweller's forceps. The incision is sutured and the animals are allowed to recover for 28 days. Functional recovery was measured by gait, nerve conductance and toe spread measurements between digits 1 and 5 and digits 2 and 4.

Sprague Dawley rats = format: in vivo; settings: rat, in vivo, 9 mg/kg
Method: Taxol™ commonly causes dose dependent peripheral neuropathies during cancer treatment. […] All of the Taxol™ treated animals developed peripheral neuropathies, characterized by ‘tip toe walking’. The extent of this neuropathy was analyzed by quantifying the refracted light captured by a video camera as the animals walked over a glass plate.
Adult Sprague Dawley rats were treated with Taxol™ (IP, 9 mg/kg in Cremophor EL and ethanol) twice weekly for 3 weeks (J. Neuro-Oncology (1999) 41: 107-116). Compound was administered I hour prior to Taxol™ treatment (IP, 1, 5 and 10 mg/kg in hydroxypropyl-β-cyclodextrin). Taxol™ treated control animals were treated with saline solution at the same time of Compound treated animals. Non-treated control animals were treated with saline solution as above. Weight gain was measured every second day, starting at Day 1. Gait analysis was measured by quantifying the refracted light captured by a video camera as the animals walked over a glass plate, 2 days after the final Taxol™ treatment (Physiology and Behavior (1994), 55(4): 723-726; Med. Sci. Res. (1988) 16: 901-902). […] H/M wave recovery was analyzed using standard procedures 2 days after the final Taxol™ treatment (Muscle Nerve (1998) 21: 1405-1413; Annals of Neurology (1998) 43 (1): 46-55).
Male Spraugue Dawley rats were treated with 50% HPDC vehicle (veh/veh), compound I dissolved in 50% HPDC at 1, 5, or 10 mg/kg (veh/1, veh/5, veh/10, respectively), or Taxol™ (9 mg/kg)+compound 1 dissolved in 50% HPDC at 1, 5, and 10 mg/kg (Tax/1, Tax/5, Tax/10) according to the dosing regime described in Example 160. Weight measurements were made ever other day.
Two days after the completion of drug treatments animal walking gait was analyzed according to a) total imprint area, and b) total number of contact points.
FIG. 6 illustrates the effect of Compound 1 on H-reflex amplitude, a measurement of H/M wave disturbance induced by Taxol™. Two days after the completion of drug treatments, the dorsal root ganglia and attached nerves were dissected bilaterally from L4 and L5 and their H/M wave conductance measured.

SCG neurons [3] = assay: In vitro protection of SCG neurons from vincristine killing; format: cell-based, Sprague Dawley rats; settings: vincristine 100 ng/mL
Text: Similarly, vincristine and vinblastine are commonly used anti-tumour agents whose mode of action involve tubulin binding.

pIC50 (CA II) | Compound | pIC50 (SCG neurons [1]; Rattus norvegicus, Neuron) | pIC50 (SCG neurons [2]; Rattus norvegicus, Neuron) | also measured
6.36 | COc1ccccc1-c1ccc(-c2cn3nc(S(N)(=O)=O)sc3n2)cc1 [Compound 75, 6-(4-(2-methoxyphenyl)phenyl)imidazo[2,1-b]-1,3,4-thiadiazole-2-sulfonamide] | 5.00 | 5.30 | 
 | NS(=O)(=O)c1nn2cc(-c3ccc(OCCO)cc3)nc2s1 [Compound 26] | 4.64 | 5.15 | 
6.89 | NS(=O)(=O)c1nn2cc(-c3ccc(Oc4ccccc4)cc3)nc2s1 [Compound 87, 6-(4-phenoxyphenyl)imidazo[2,1-b]-1,3,4-thiadiazole-2-sulfonamide] | 5.00 | 5.30 | 
4.27 | NS(=O)(=O)c1nn2cc(-c3cc4ccccc4o3)nc2s1 [Compound 111, 6-(Benzo[b]furan-2-yl)imidazo[2,1-b]-1,3,4-thiadiazole-2-sulfonamide] | 5.15 | 5.70 | functional recovery after sciatic nerve crush (sciatic nerve): improved recovery
5.77 | NS(=O)(=O)c1nn2cc(-c3ccc(-c4ccc(CO)cc4)cc3)nc2s1 [Compound 74, 6-(4-(hydroxymethylphenyl)phenyl)imidazo[2,1-b]-1,3,4-thiadiazole-2-sulfonamide] | 4.70 | 5.15 | 
5.27 | NS(=O)(=O)c1nn2cc(-c3ccc(-c4ccc(C(F)(F)F)cc4)cc3)nc2s1 [Compound 82, 6-(4-(4-trifluoromethylphenyl)phenyl)imidazo[2,1-b]-1,3,4-thiadiazole-2-sulfonamide] | 4.60 | 5.70 | 
5.79 and 5.66 | NS(=O)(=O)c1nn2cc(-c3ccc(-c4ccccc4)cc3)nc2s1 [Compound 72, 6-(Biphenyl)imidazo[2,1-b]-1,3,4-thiadiazole-2-sulfonamide] | 4.77 | 5.00 | 
5.27 | NS(=O)(=O)c1nn2cc(-c3ccc4c(c3)OCCCO4)nc2s1 [Compound 21, 6-(3,4-dihydro-2H-1,5-benzodioxepin-7-yl)imidazo[2,1-b]-1,3,4-thiadiazole-2-sulfonamide] | 4.66 | 5.15 | 
 | CN(C)c1cccc(Oc2ccc(-c3cn4nc(S(N)(=O)=O)sc4n3)cc2)c1 [Compound 96, 6-(3-dimethylaminophenoxyphenyl)imidazo[2,1-b]-1,3,4-thiadiazole-2-sulfonamide] | 4.70 |  | 
 | COc1cc(-c2cn3nc(S(N)(=O)=O)sc3n2)ccc1OCCO [Compound 34] | < 4.52 |  | 
6.04 | NS(=O)(=O)c1nn2cc(-c3ccc(Oc4ccc([N+](=O)[O-])cc4)cc3)nc2s1 [Compound 99, 6-(4-(4-nitrophenoxy)phenyl)imidazo[2,1-b]-1,3,4-thiadiazole-2-sulfonamide] | 5.15 | 5.70 | 
 | 6-(4-bromophenoxyphenyl)imidazo[2,1-b]-1,3,4-thiadiazole-2-sulfonamide [Compound 95] |  |  | pIC50 (SCG neurons [1]): 5.15; pIC50 (SCG neurons [2]): 5.52
 | NS(=O)(=O)c1nn2cc(-c3ccc(-c4cccs4)cc3)nc2s1 [Compound 84, 6-(thiophen-2-yl-phenyl)imidazo[2,1-b]-1,3,4-thiadiazole-2-sulfonamide] | < 4.52 |  | 
 | CC(=O)O[C@H]1C(=O)[C@@]2(C)[C@H]([C@H](OC(=O)c3ccccc3)[C@]3(O)C[C@H](OC(=O)[C@H](O)[C@@H](NC(=O)c4ccccc4)c4ccccc4)C(C)=C1C3(C)C)[C@]1(OC(C)=O)CO[C@@H]1C[C@@H]2O [Taxol™, reference compound] |  |  | reduction in foot-pad contact as compared to control animals (Sprague Dawley rats): 46%; weight gain over a thirteen day period (Sprague Dawley rats): no weight gain
 | COc1cccc(-c2ccc(-c3cn4nc(S(N)(=O)=O)sc4n3)cc2)c1 [Compound 149, 6-(3′-methoxybiphen-4-yl)imidazo[2,1-b]-1,3,4-thiadiazole-2-sulfonamide sodium salt] |  |  | pIC50 (SCG neurons [1]; Rattus norvegicus, Neuron, 48 h): 5.15
 | CC[C@]1(O)C[C@H]2CN(CCc3c([nH]c4ccccc34)[C@@](C(=O)OC)(c3cc4c(cc3OC)N(C=O)[C@H]3[C@@](O)(C(=O)OC)[C@H](OC(C)=O)[C@]5(CC)C=CCN6CC[C@]43[C@@H]65)C2)C1 [vincristine, reference compound] |  |  | apoptosis of cultured SCG neurons (SCG neurons [3]): ≥ 80%

Compound | pIC50 (CA II) | pIC50 (SCG neurons [1]; Rattus norvegicus, Neuron) | pIC50 (SCG neurons [2]; Rattus norvegicus, Neuron) | also measured
COc1cccc(-c2ccc(-c3cn4nc(S(N)(=O)=O)sc4n3)cc2)c1 [Compound 76, 6-(4-(3-methoxyphenyl)phenyl)imidazo[2,1-b]-1,3,4-thiadiazole-2-sulfonamide] | 6.28 | 5.30 | 5.70 | annexin V positive (apoptotic) cells (cortical neurons): prevents the occurrence of annex in V stained cells; also recorded: prevented the appearance of annexinV positive cells; functional recovery after sciatic nerve crush (sciatic nerve): improved recovery; recovery in toe spread area (inner toe spread) (sciatic nerve; versus vehicle control): induced increased recovery
NS(=O)(=O)c1nn2cc(-c3ccc(-c4cccc(C(F)(F)F)c4)cc3)nc2s1 [Compound 81, 6-(4-(3-trifluoromethylphenyl)phenyl)imidazo[2,1-b]-1,3,4-thiadiazole-2-sulfonamide] | 5.80 | 5.30 | 5.52 | 
